Test results: PMC9386326, “Dysregulated glucuronic acid metabolism exacerbates hepatocellular carcinoma progression and metastasis through the TGFβ signalling pathway” (Clinical and Translational Medicine, 2022)

Target: T1, PTBP3 (Homo sapiens, UniProt O95758)
T1 construct: endogenous full-length protein in human hepatoma (Huh7) cells / cell lysates
Test: CETSA (cell lysate, immunoblot) and DARTS (pronase)
Format: biochemical
Conditions: endogenous PTBP3 in Huh7 cells / lysates; stabilisation, authors call it potential direct binding

T1 sequence (O95758 whole entry): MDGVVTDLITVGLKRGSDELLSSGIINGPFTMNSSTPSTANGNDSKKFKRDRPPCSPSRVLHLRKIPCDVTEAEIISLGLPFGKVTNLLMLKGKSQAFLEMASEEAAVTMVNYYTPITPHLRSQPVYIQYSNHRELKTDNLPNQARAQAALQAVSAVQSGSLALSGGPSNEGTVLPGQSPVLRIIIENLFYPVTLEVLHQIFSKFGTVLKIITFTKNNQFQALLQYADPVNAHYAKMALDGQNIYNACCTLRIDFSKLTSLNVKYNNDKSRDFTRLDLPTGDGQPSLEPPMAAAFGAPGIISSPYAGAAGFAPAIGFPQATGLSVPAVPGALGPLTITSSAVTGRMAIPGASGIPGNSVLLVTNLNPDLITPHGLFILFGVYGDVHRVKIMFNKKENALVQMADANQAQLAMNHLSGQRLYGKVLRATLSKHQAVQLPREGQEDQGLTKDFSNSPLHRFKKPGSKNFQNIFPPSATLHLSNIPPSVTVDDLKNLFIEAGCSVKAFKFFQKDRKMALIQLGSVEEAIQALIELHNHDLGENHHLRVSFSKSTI

O=C(O)[C@H]1O[C@H](OP(=O)(O)OP(=O)(O)OC[C@H]2O[C@@H](n3ccc(=O)[nH]c3=O)[C@H](O)[C@@H]2O)[C@H](O)[C@@H](O)[C@@H]1O [UDP-GlcUA]
CETSA (cell lysate, immunoblot) and DARTS (pronase): PTBP3 protein stability is enhanced upon UDP‐GlcUA treatment, suggesting a potential direct binding
